Measurements published in patent publication US20080119498A1, “Therapeutic Agent for Pruritus Comprising P38 Map Kinase Inhibitor as the Active Ingredient” (priority 2004, published 2008).

Columns and labels:
[1] = tested on: histamine-induced eye scratching behavior; assay: Ocular pruritus inhibition activity to histamine-induced models; assay type: in vivo, guinea pig; settings: for number of eye scratching times in comparison with the control (in words): histamine-induced guinea pig model, instilled at 0.1%; for Eye scratching behavior inhibition ratio / Number of eye scratching times: male Hartley guinea pigs, 0.1% (w/v) instilled twice, 10 μl per eye; for Eye scratching behavior inhibition ratio: 30 minutes after instillation of 1.0% histamine, versus control; for Number of eye scratching times: average for 30 minutes after instillation of 1.0% histamine, control 6.1
Method: Compound A was dissolved in a 5.0% Tween 80/physiological saline solution at a concentration of 0.1% (w/v), and Compound B was suspended in a 5.0% Tween 80/physiological saline solution at a concentration of 0.1% (w/v), whereby the respective test compound solutions were prepared.
Each test compound solution was instilled into both eyes of 5-week-old male Hartley guinea pigs in an amount of 10 μl per eye. At 15 minutes thereafter, each test compound solution of the same concentration was instilled again (twice in total). As a control, a 5.0% Tween 80/physiological saline solution was used.
After 15 minutes from the second instillation of each test compound solution, a physiological saline solution in which histamine was dissolved at 1.0% (w/v) was instilled into both eyes of the above guinea pigs in an amount of 10 μl per eye to induce eye scratching behavior.
(§1) The behavior of the guinea pigs after the instillation of histamine was videotaped, and the ocular pruritus was evaluated for each eye by counting the number of times of a series of behaviors of scratching the eye with the hind paws. In Table 1, the average of the number of eye scratching times for 30 minutes after the instillation of histamine and the average of the eye scratching behavior inhibition ratio are shown. Each group consisted of 8 eyes.
(§2) Eye scratching behavior inhibition ratio (%)=100−(number of eye scratching times for test compound)/(number of eye scratching times for control)×100

[2] = tested on: platelet activating factor-induced eye scratching behavior; assay: Ocular pruritus inhibition activity to platelet activating factor-induced models; assay type: in vivo, guinea pig; settings: for Eye scratching behavior inhibition ratio / Number of eye scratching times: male Hartley guinea pigs, 10 μl per eye; for Eye scratching behavior inhibition ratio: 30 minutes after instillation of 0.1% platelet activating factor, versus control; for Number of eye scratching times: average for 30 minutes after instillation of 0.1% platelet activating factor, control 7.1
Method: as §2
Platelet activating factor-induced ocular pruritus evaluation models were prepared in accordance with the published method of Kato et al. (J. Ocul. Pharmacol. Ther. 2003; 19: 315-324). Compound C was dissolved in ultrapure water at a concentration of 0.01% or 0.1% (w/v), and each of the resulting solutions was instilled into both eyes of 5-week-old male Hartley guinea pigs in an amount of 10 μl per eye. At 15 minutes thereafter, each solution of Compound C of the same concentration was instilled again (twice in total). As a control, ultrapure water was used.
After 15 minutes from the second instillation of the solution of Compound C, a physiological saline solution in which a platelet activating factor was dissolved at 0.1% (w/v) was instilled into both eyes of the above guinea pigs in an amount of 10 μl per eye to induce eye scratching behavior.
as §1, with “the platelet activating factor” for “histamine”, “2,” for “1,”

For Cl.Oc1ccc(-c2nc(-c3ccc(F)cc3)c(-c3ccncc3)[nH]2)cc1 [Compound A, 4-(4-fluorophenyl)-2-(4-hydroxyphenyl)-5-(4-pyridyl)-1H-imidazole hydrochloride], the “number of eye scratching times in comparison with the control (in words)” value (shortened to “number of eye scratching times … (in words)”) [1] was “significantly decreased”, the “Eye scratching behavior inhibition ratio” value [1] was 77.0% and the “Number of eye scratching times” value [1] was 1.4 times.

For COc1nccc(-c2c(-c3ccc(F)cc3)ncn2[C@H]2CC[C@H](O)CC2)n1 [Compound B, trans-4-[4-(4-fluorophenyl)-5-(2-methoxy-4-pyrimidinyl)-1H-imidazole-1-yl]cyclohexanol], the “number of eye scratching times … (in words)” value [1] was “significantly decreased”, the “Eye scratching behavior inhibition ratio” value [1] was 36.1% and the “Number of eye scratching times” value [1] was 3.9 times.

C[S+]([O-])c1ccc(-c2nc(-c3ccc(F)cc3)c(-c3ccncc3)[nH]2)cc1.Cl (centres unmarked) [Compound C, 4-(4-fluorophenyl)-2-(4-methylsulfinylphenyl)-5-(4-pyridyl)-1H-imidazole hydrochloride] was tested, and the “Eye scratching behavior inhibition ratio” value ([2]; 0.01% (w/v) instilled twice) was 87.3%, the “Number of eye scratching times” value ([2]; 0.01% (w/v) instilled twice) was 0.9 times and the “Eye scratching behavior inhibition ratio” value ([2]; 0.1% (w/v) instilled twice) was 85.9%. For the same compound, the “Number of eye scratching times” value ([2]; 0.1% (w/v) instilled twice) was 1.0 times and the “number of eye scratching times … (in words)” value ([2]; platelet activating factor-induced guinea pig model, instilled at 0.01% or 0.1%) was “significantly decreased”.
